Assay results: patent US7879347B2, “Dihydroxyphenyl compounds and glucoside compounds thereof” (KAO Corporation, priority 2001, dated 2011)

Key:
[1] = Anti-oxidation test (UV-induced peroxide formation); design: unit not given here; settings: 0.005 g compound in 1 ml methyl linolate
Source text: Comparative test on raspberry ketone was made in the same manner as above.

[2] = tested on: Free fatty cells from epididymis fatty tissues; test: Determination of lypolytic activity in free fatty cells; assay type: cell-based, Wister male rats; settings: for degree of lypolysis promotion (%): 100 μg/ml test compound, 0.05 μg/ml norepinephrine, 37° C., 1 hour, fatty acids relative to control solution without compound (=100)
Experimental: The cells were added to a Hank's balanced solution containing 0.05 μg/ml of bovine serum albumin, 0.05 μg/ml of norepinephrine and 100 μg/ml of the present compound to be tested, and then allowed to react at 37° C. for 1 hour. Liberated fatty acids were extracted and quantitated with a copper reagent and a color developing reagent. Lypolytic activity was calculated according to the following equation. Lypolytic activity(%)=[A/B]×100, wherein A: amount of fatty acids in a sample solution, and B: that in a control solution without present compound. Subcutaneous Fat Decomposition Test

B16 melanoma cells = test: Melanogenesis inhibition test; assay type: cell-based; settings: 72 hours; for Amount of melanin per cell (%): Theophylline containing medium, relative to blank
Experimental: B16 melanoma cells were inoculated in a 12 wells-plastic plate at a concentration of 2×10^4/well on MEM (Minimum Essential Medium). After 24 hours, the medium was changed to a Theophylline containing medium to which 4-(3′,4′-dihydroxyphenyl)-butane-2-one was added in the concentrations shown in Table 6. The cells were cultured for 72 hours and then treated with 10% TCA and ethanol/diethylether(=1/1). After counting the number of the cells, the cells were dissolved in an aqueous 1 mol/l sodium hydroxide solution containing dimethylsulfoxide in a concentration of 10%. Optical density at 475 nm (OD475) of the solution thus obtained was measured.

Compound | amount of peroxides formed by oxidation of methyl linolate ([1]; UVB 10 (J/cm^2)) | amount of peroxides formed by oxidation of methyl linolate ([1]; UVB 30 (J/cm^2)) | degree of lypolysis promotion (%) [2] | Amount of melanin per cell (%) (B16 melanoma cells; concentration 1 μg/l) | Amount of melanin per cell (%) (B16 melanoma cells; concentration 3 μg/l) | Amount of melanin per cell (%) (B16 melanoma cells; concentration 10 μg/l) | Amount of melanin per cell (%) (B16 melanoma cells; concentration 30 μg/l) | numbers of the cells (B16 melanoma cells; concentration range of Table 6 (up to 30 μg/l)) | lypolytic activity compared with raspberry ketone of Comparative Example 1 ([2]; comparison in words)
CC(=O)CCc1ccc(O)cc1 [Raspberry ketone, reference compound] | 30.2 | 42.5 | 142.0 +/− 6.8% | – | – | – | – | – | –
CC(=O)CCc1ccc(O)c(O)c1 [4-(3′,4′-dihydroxyphenyl)-butane-2-one] | 1.6 | 3.7 | 194.3 +/− 12.4% | 94.7 | 77.2 | 62.7 | 2.2 | no difference | significantly higher
